We go through 5 molecules from patent publication US11939352B2, “Potent aromatase inhibitors through fungal transformation of anti-cancer drug testolactone: an approach towards treatment of breast cancer” (priority 2021, dated 2024).

Each structure is given as a SMILES string.

The assay addresses T1, human placental microsomal aromatase (Homo sapiens, UniProt P11511).
T1 construct: was determined in a pool of human fresh placental microsomes in vitro; from tissue; host or cells: human placenta (pooled fresh microsomes)
T1 sequence (P11511 1-503): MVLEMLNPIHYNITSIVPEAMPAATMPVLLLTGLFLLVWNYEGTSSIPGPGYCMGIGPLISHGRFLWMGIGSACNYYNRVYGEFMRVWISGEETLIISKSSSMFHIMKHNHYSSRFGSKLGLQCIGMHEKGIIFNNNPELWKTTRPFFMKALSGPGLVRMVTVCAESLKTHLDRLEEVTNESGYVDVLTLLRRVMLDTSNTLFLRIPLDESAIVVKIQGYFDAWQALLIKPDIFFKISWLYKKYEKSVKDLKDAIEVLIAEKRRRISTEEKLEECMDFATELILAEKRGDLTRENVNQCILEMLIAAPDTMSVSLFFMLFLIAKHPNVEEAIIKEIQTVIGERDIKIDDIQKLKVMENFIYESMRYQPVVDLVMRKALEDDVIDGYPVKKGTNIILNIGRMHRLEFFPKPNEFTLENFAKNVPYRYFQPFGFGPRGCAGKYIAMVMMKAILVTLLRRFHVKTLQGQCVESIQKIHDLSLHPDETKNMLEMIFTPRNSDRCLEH
Put plainly: Human placental aromatase inhibition assay. The class given is biochemical.
On to `C[C@]12CC[C@H]3[C@@H](CC[C@]45O[C@H]4[C@H](O)C=C[C@]35C)[C@@H]1CCC(=O)O2` [Compound 5, 4β,5β-epoxy-3α-hydroxy-13,17-secoandrosta-1-eno-17,13α-lactone], for which the half-maximal inhibitory concentration (IC50) (commonly the point on the concentration scale where inhibition reaches its midpoint) amounted to 820 ± 59 nM. Regarding `C[C@]12C=CC(=O)C=C1CC[C@@H]1[C@@H]2CC[C@]2(C)OC(=O)CC[C@@H]12` [Compound 1, 3-oxo-13,17-secoandrosta-1,4-dieno-17,13α-lactone, reference compound], the midpoint of inhibition, the IC50, lay at 716 ± 31 nM. The molecule `C[C@]12CC[C@@H](O)C[C@H]1CC[C@@H]1[C@@H]2[C@@H](O)C[C@]2(C)OC(=O)CC[C@@H]12` [Compound 3, 3α,11β-dihydroxy-13,17-seco-5β-androsta-17,13α-lactone] had an IC50 of 9.23 ± 1.3 nM. With `C[C@]12CC[C@H]3[C@@H](CC[C@]45O[C@H]4[C@@H](O)C=C[C@]35C)[C@@H]1CCC(=O)O2` [Compound 4, 4β,5β-epoxy-3β-hydroxy-13,17-secoandrosta-1-eno-17,13α-lactone] the figure was 10400 ± 500 nM. Next, `C[C@]12C=CC(=O)C[C@H]1C[C@H](O)[C@@H]1[C@@H]2CC[C@]2(C)OC(=O)CC[C@@H]12` [Compound 2, 7β-hydroxy-3-oxo-13,17-seco-5β-androsta-1-eno-17,13α-lactone]: 8.63 ± 0.4 nM.
